Counter-ions that a name gives are not always drawn.
These molecules were tested on myeloid leukemia patient primary cells Pat.13 (assay: cell viability (% survival relative to DMSO control); higher = less cytotoxic). Details: 100 nM; 72 h.
In short: (§1)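 Mononuclear cells from patients with AML or CML were thawed, purified on Ficoll and placed in RPMI 1640 with 10% FBS at 10,000 cells/well on 384-well plates. The plates came pre-printed with 70 compounds at five tenfold concentrations spanning 1–10,000 nM, in duplicate, and cells were exposed for 72 h. CellTiter-Glo gave viability, scaled between DMSO wells and wells with 10 μM proteasome inhibitor. Where reported, area under the curve was obtained from log-logistic fits with four parameters using the drc and PharmacoGx R packages.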
Molecule `O=C(Oc1cccc(F)c1OC(=O)c1cccc(O)c1)c1cccc(O)c1` [WZB117] has a cell viability of 78.5%. Molecule `CC(C)(Cc1ccccc1)NCC(O)c1ccc(O)c(NS(C)(=O)=O)c1` (stereo unspecified) [Zinterol hydrochloride] has a cell viability of 92.6%.

Same assay, conditions: 1000 nM; 72 h
`Fc1ccc(CNc2ncnc3ccc(F)cc23)cc1` [Spautin 1] showed a cell viability of 75.7%. With `O=C(Oc1cccc(F)c1OC(=O)c1cccc(O)c1)c1cccc(O)c1` [WZB117] the cell viability was 91%. In the case of `CC(C)(Cc1ccccc1)NCC(O)c1ccc(O)c(NS(C)(=O)=O)c1` (stereo unspecified) [Zinterol hydrochloride], the cell viability is reported as > 100%.

Same assay, conditions: 10000 nM; 72 h
Work on `Fc1ccc(CNc2ncnc3ccc(F)cc23)cc1` [Spautin 1] yielded a cell viability of 34.9%. With `O=C(Oc1cccc(F)c1OC(=O)c1cccc(O)c1)c1cccc(O)c1` [WZB117] the cell viability was 63.9%. `CC(C)(Cc1ccccc1)NCC(O)c1ccc(O)c(NS(C)(=O)=O)c1` (stereo unspecified) [Zinterol hydrochloride] was tested, and the cell viability was > 100%.

What follows are molecules tested on myeloid leukemia patient primary cells Pat.3 in the same assay as above. Details: 1 nM; 72 h.
In short: as §1
`Fc1ccc(CNc2ncnc3ccc(F)cc23)cc1` [Spautin 1] was tested, and the cell viability was 63.4%. `O=C(Oc1cccc(F)c1OC(=O)c1cccc(O)c1)c1cccc(O)c1` [WZB117] showed a cell viability of 96.7%. With `CC(C)(Cc1ccccc1)NCC(O)c1ccc(O)c(NS(C)(=O)=O)c1` (stereo unspecified) [Zinterol hydrochloride] the cell viability was 84.7%.

Same assay, conditions: 10 nM; 72 h
`Fc1ccc(CNc2ncnc3ccc(F)cc23)cc1` [Spautin 1] was tested, and the cell viability was 49.7%. With `O=C(Oc1cccc(F)c1OC(=O)c1cccc(O)c1)c1cccc(O)c1` [WZB117] the cell viability was 71.3%. With `CC(C)(Cc1ccccc1)NCC(O)c1ccc(O)c(NS(C)(=O)=O)c1` (stereo unspecified) [Zinterol hydrochloride] the cell viability was > 100%.

Same assay, conditions: 100 nM; 72 h
`Fc1ccc(CNc2ncnc3ccc(F)cc23)cc1` [Spautin 1] was tested, and the cell viability was > 100%. Molecule `O=C(Oc1cccc(F)c1OC(=O)c1cccc(O)c1)c1cccc(O)c1` [WZB117] has a cell viability of 83%. Work on `CC(C)(Cc1ccccc1)NCC(O)c1ccc(O)c(NS(C)(=O)=O)c1` (stereo unspecified) [Zinterol hydrochloride] yielded a cell viability of 93.4%.

Same assay, conditions: 1000 nM; 72 h
Molecule `Fc1ccc(CNc2ncnc3ccc(F)cc23)cc1` [Spautin 1] has a cell viability of 33.1%. In the case of `O=C(Oc1cccc(F)c1OC(=O)c1cccc(O)c1)c1cccc(O)c1` [WZB117], the cell viability is reported as 72.5%. With `CC(C)(Cc1ccccc1)NCC(O)c1ccc(O)c(NS(C)(=O)=O)c1` (stereo unspecified) [Zinterol hydrochloride] the cell viability was 90.2%.

Same assay, conditions: 10000 nM; 72 h
Work on `Fc1ccc(CNc2ncnc3ccc(F)cc23)cc1` [Spautin 1] yielded a cell viability of 69.9%. With `O=C(Oc1cccc(F)c1OC(=O)c1cccc(O)c1)c1cccc(O)c1` [WZB117] the cell viability was < 0%. Molecule `CC(C)(Cc1ccccc1)NCC(O)c1ccc(O)c(NS(C)(=O)=O)c1` (stereo unspecified) [Zinterol hydrochloride] has a cell viability of 87.3%.

The molecules below were run on myeloid leukemia patient primary cells Pat.1 in the same assay as above. Details: 1 nM; 72 h.
In short: as §1
Molecule `Fc1ccc(CNc2ncnc3ccc(F)cc23)cc1` [Spautin 1] has a cell viability of 97%. For `O=C(Oc1cccc(F)c1OC(=O)c1cccc(O)c1)c1cccc(O)c1` [WZB117], the cell viability was 98%. With `CC(C)(Cc1ccccc1)NCC(O)c1ccc(O)c(NS(C)(=O)=O)c1` (stereo unspecified) [Zinterol hydrochloride] the cell viability was 89.4%.

Same assay, conditions: 10 nM; 72 h
`Fc1ccc(CNc2ncnc3ccc(F)cc23)cc1` [Spautin 1] was tested, and the cell viability was 84.4%. `O=C(Oc1cccc(F)c1OC(=O)c1cccc(O)c1)c1cccc(O)c1` [WZB117] showed a cell viability of 81.2%. In the case of `CC(C)(Cc1ccccc1)NCC(O)c1ccc(O)c(NS(C)(=O)=O)c1` (stereo unspecified) [Zinterol hydrochloride], the cell viability is reported as > 100%.

Same assay, conditions: 100 nM; 72 h
Molecule `Fc1ccc(CNc2ncnc3ccc(F)cc23)cc1` [Spautin 1] has a cell viability of 88.1%. Work on `O=C(Oc1cccc(F)c1OC(=O)c1cccc(O)c1)c1cccc(O)c1` [WZB117] yielded a cell viability of 78%. Work on `CC(C)(Cc1ccccc1)NCC(O)c1ccc(O)c(NS(C)(=O)=O)c1` (stereo unspecified) [Zinterol hydrochloride] yielded a cell viability of 98.6%.

Same assay, conditions: 1000 nM; 72 h
Molecule `Fc1ccc(CNc2ncnc3ccc(F)cc23)cc1` [Spautin 1] has a cell viability of 81.7%. In the case of `O=C(Oc1cccc(F)c1OC(=O)c1cccc(O)c1)c1cccc(O)c1` [WZB117], the cell viability is reported as 88.7%. `CC(C)(Cc1ccccc1)NCC(O)c1ccc(O)c(NS(C)(=O)=O)c1` (stereo unspecified) [Zinterol hydrochloride] gave a cell viability of 94.8%.

Same assay, conditions: 10000 nM; 72 h
For `Fc1ccc(CNc2ncnc3ccc(F)cc23)cc1` [Spautin 1], the cell viability was 46.4%. For `O=C(Oc1cccc(F)c1OC(=O)c1cccc(O)c1)c1cccc(O)c1` [WZB117], the cell viability was 47.3%. For `CC(C)(Cc1ccccc1)NCC(O)c1ccc(O)c(NS(C)(=O)=O)c1` (stereo unspecified) [Zinterol hydrochloride], the cell viability was > 100%.

Each molecule was assayed on myeloid leukemia patient primary cells Pat.4 in the same assay as above. Details: 1 nM; 72 h.
In short: as §1
`Fc1ccc(CNc2ncnc3ccc(F)cc23)cc1` [Spautin 1] showed a cell viability of 77.2%. Work on `O=C(Oc1cccc(F)c1OC(=O)c1cccc(O)c1)c1cccc(O)c1` [WZB117] yielded a cell viability of 94.5%. `CC(C)(Cc1ccccc1)NCC(O)c1ccc(O)c(NS(C)(=O)=O)c1` (stereo unspecified) [Zinterol hydrochloride] was tested, and the cell viability was 87.7%.

Same assay, conditions: 10 nM; 72 h
For `Fc1ccc(CNc2ncnc3ccc(F)cc23)cc1` [Spautin 1], the cell viability was 87.3%. For `O=C(Oc1cccc(F)c1OC(=O)c1cccc(O)c1)c1cccc(O)c1` [WZB117], the cell viability was 82.1%. Work on `CC(C)(Cc1ccccc1)NCC(O)c1ccc(O)c(NS(C)(=O)=O)c1` (stereo unspecified) [Zinterol hydrochloride] yielded a cell viability of 94.7%.

Same assay, conditions: 100 nM; 72 h
For `Fc1ccc(CNc2ncnc3ccc(F)cc23)cc1` [Spautin 1], the cell viability was 96.2%. `O=C(Oc1cccc(F)c1OC(=O)c1cccc(O)c1)c1cccc(O)c1` [WZB117] gave a cell viability of 85.2%. For `CC(C)(Cc1ccccc1)NCC(O)c1ccc(O)c(NS(C)(=O)=O)c1` (stereo unspecified) [Zinterol hydrochloride], the cell viability was 82.8%.

Same assay, conditions: 1000 nM; 72 h
With `Fc1ccc(CNc2ncnc3ccc(F)cc23)cc1` [Spautin 1] the cell viability was 70.4%. Molecule `O=C(Oc1cccc(F)c1OC(=O)c1cccc(O)c1)c1cccc(O)c1` [WZB117] has a cell viability of 99%. Molecule `CC(C)(Cc1ccccc1)NCC(O)c1ccc(O)c(NS(C)(=O)=O)c1` (stereo unspecified) [Zinterol hydrochloride] has a cell viability of 93.3%.

Same assay, conditions: 10000 nM; 72 h
With `Fc1ccc(CNc2ncnc3ccc(F)cc23)cc1` [Spautin 1] the cell viability was 50.5%. Work on `O=C(Oc1cccc(F)c1OC(=O)c1cccc(O)c1)c1cccc(O)c1` [WZB117] yielded a cell viability of 17.3%. In the case of `CC(C)(Cc1ccccc1)NCC(O)c1ccc(O)c(NS(C)(=O)=O)c1` (stereo unspecified) [Zinterol hydrochloride], the cell viability is reported as 97.3%.

These molecules were tested on myeloid leukemia patient primary cells Pat.8 in the same assay as above. Details: 1 nM; 72 h.
In short: as §1
`Fc1ccc(CNc2ncnc3ccc(F)cc23)cc1` [Spautin 1] gave a cell viability of 93.5%. For `O=C(Oc1cccc(F)c1OC(=O)c1cccc(O)c1)c1cccc(O)c1` [WZB117], the cell viability was 95.5%. `CC(C)(Cc1ccccc1)NCC(O)c1ccc(O)c(NS(C)(=O)=O)c1` (stereo unspecified) [Zinterol hydrochloride] showed a cell viability of 88.5%.

Same assay, conditions: 10 nM; 72 h
In the case of `Fc1ccc(CNc2ncnc3ccc(F)cc23)cc1` [Spautin 1], the cell viability is reported as 82.1%. For `O=C(Oc1cccc(F)c1OC(=O)c1cccc(O)c1)c1cccc(O)c1` [WZB117], the cell viability was 67.8%. Work on `CC(C)(Cc1ccccc1)NCC(O)c1ccc(O)c(NS(C)(=O)=O)c1` (stereo unspecified) [Zinterol hydrochloride] yielded a cell viability of 96.4%.

Same assay, conditions: 100 nM; 72 h
For `Fc1ccc(CNc2ncnc3ccc(F)cc23)cc1` [Spautin 1], the cell viability was 85.6%. Molecule `O=C(Oc1cccc(F)c1OC(=O)c1cccc(O)c1)c1cccc(O)c1` [WZB117] has a cell viability of 79.7%. `CC(C)(Cc1ccccc1)NCC(O)c1ccc(O)c(NS(C)(=O)=O)c1` (stereo unspecified) [Zinterol hydrochloride] was tested, and the cell viability was > 100%.

Same assay, conditions: 1000 nM; 72 h
`Fc1ccc(CNc2ncnc3ccc(F)cc23)cc1` [Spautin 1] gave a cell viability of 80.7%. `O=C(Oc1cccc(F)c1OC(=O)c1cccc(O)c1)c1cccc(O)c1` [WZB117] showed a cell viability of 51.9%. For `CC(C)(Cc1ccccc1)NCC(O)c1ccc(O)c(NS(C)(=O)=O)c1` (stereo unspecified) [Zinterol hydrochloride], the cell viability was 85.3%.

Same assay, conditions: 10000 nM; 72 h
For `Fc1ccc(CNc2ncnc3ccc(F)cc23)cc1` [Spautin 1], the cell viability was 51.1%. For `O=C(Oc1cccc(F)c1OC(=O)c1cccc(O)c1)c1cccc(O)c1` [WZB117], the cell viability was 11%. `CC(C)(Cc1ccccc1)NCC(O)c1ccc(O)c(NS(C)(=O)=O)c1` (stereo unspecified) [Zinterol hydrochloride] was tested, and the cell viability was 85.5%.

The molecules below were run on myeloid leukemia patient primary cells Pat.9 in the same assay as above. Details: 1 nM; 72 h.
In short: as §1
Molecule `Fc1ccc(CNc2ncnc3ccc(F)cc23)cc1` [Spautin 1] has a cell viability of 67.2%. `O=C(Oc1cccc(F)c1OC(=O)c1cccc(O)c1)c1cccc(O)c1` [WZB117] was tested, and the cell viability was 60.3%. Work on `CC(C)(Cc1ccccc1)NCC(O)c1ccc(O)c(NS(C)(=O)=O)c1` (stereo unspecified) [Zinterol hydrochloride] yielded a cell viability of 79.2%.
